Measurements: patent US11008357B2, “Method for preparing canagliflozin amorphous form” (Zhejiang Huahai Pharmaceutical Co., Ltd., priority 2017, dated 2021)
Where two headings read alike, the source gives them in different places.

Key:
[1] = Stability test of canagliflozin amorphous forms (moisture absorption, crystal transition); format: physicochemical; details: Temperature 25 ± 5° C., Humidity 50-60%, 3 months
Text: In order to illustrate that the canagliflozin amorphous form of the present invention is different from the amorphous form prepared by the general amorphous preparation method, the inventors select and compare the amorphous forms obtained by the above-mentioned practical methods, including rapid evaporation of solvent for curing, mixed solvent method and other related methods.

[2] = stability test conditions not documented in the literature; cited from earlier work

Row | SMILES | Crystal transition or not [1] | Obvious moisture absorption or not [1] | Crystal transition or not [2] | Obvious moisture absorption or not [2]
1 | Cc1ccc([C@@H]2O[C@H](CO)[C@@H](O)[C@H](O)[C@H]2O)cc1Cc1ccc(-c2ccc(F)cc2)s1 [CN104119323 Example 1, reference compound] | No | No obvious |  | 
2 | Cc1ccc([C@@H]2O[C@H](CO)[C@@H](O)[C@H](O)[C@H]2O)cc1Cc1ccc(-c2ccc(F)cc2)s1 [CN103889429 Example 2] |  |  | No | No obvious
